Structures can show the parent of a compound that is named as a salt.
What was measured:
Type in all cases: biochemical
[1] = test system: T1, adenosine deaminase (ADA); experiment: ADA assay (Blum and Schwedt); details: inhibitor in […] ethanol; unreliable (extrapolated beyond highest tested […])
T1 construct: method of Blum and Schwedt
Source text: ADA assay (Blum and Schwedt) on adenosine deaminase (ADA)

[2] = molecular target: T2, lipase; experiment: p-nitrophenyl caprate hydrolysis; details: substrate p-nitrophenyl caprate; inhibitor in […] ethanol
T2 construct: gene PNLIP; p-nitrophenyl caprate assay
Source text: p-nitrophenyl caprate hydrolysis on lipase

[3] = molecular target: T3, neuraminidase; experiment: neuraminidase assay (Myers et al.); details: inhibitor in […] ethanol
T3 construct: gene nanI; method of Myers et al
Source text: neuraminidase assay (Myers et al.) on neuraminidase

CCCCCC[C@H]([C@H](C)O)n1cnc2c(N)ncnc21 [EHNA.HCl]
Adenosine Deaminase / IC50 (mg/mL) * [1]: 0.61 ± 0.05 mg/mL

CCCCCCCCCCC[C@@H](C[C@@H]1OC(=O)[C@H]1CCCCCC)OC(=O)[C@H](CC(C)C)NC=O [Orlistat]
Lipase / IC50 (mg/mL) * [2]: 0.00245 ± 0.00010 mg/mL

O=c1c(O)c(-c2ccc(O)c(O)c2)oc2cc(O)cc(O)c12 [Quercetin dihydrate]
Neuraminidase / IC50 (mg/mL) * [3]: 0.00035 ± 0.00005 mg/mL

— publication PMC11673488, “Enzyme Inhibitory, Physicochemical, and Phytochemical Properties and Botanical Sources of Honey, Bee Pollen, Bee Bread, and Propolis Obtained from the Same Apiary” (Antioxidants, 2024)
